# Test results: patent US20100056516A1 (priority 2006, published 2010)
# What was measured:
# [1] = target: HIV integrase (Human immunodeficiency virus type 1 group M subtype B, UniProt P04585); test: integrase strand transfer assay (STA); format: biochemical; conditions: integrase strand transfer; read-out: IC50 in the STA assay
# [2] = system: HXB2 virus; test: microbe, parasite or virus in culture; format: cell-based, HIV; conditions: Human immunodeficiency virus 1, HXB2, HeLaP4-2, read-out: antiviral IC50 (SCIA-B)
# How it was run: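 Single-cycle infectivity assay in HeLa P4-2 cells measuring inhibition of acute HIV infection, using HXB2 virus.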
Compound,IC50 [1] [µM],IC50 [2] [µM]
"CC(=O)N1CCN(Cc2cccc(-c3cc(=O)n(O)c4ncccc34)c2)CC1 [Example 213, 4-{3-[(4-acetyl-1-piperazinyl)methyl]phenyl}-1-hydroxy-1,8-naphthyridin-2(1H-one)]",< 50,< 100
"CC(=O)Nc1cccc(-c2cc(=O)n(O)c3ncccc23)c1 [Example 194, N-[3-(1-hydroxy-2-oxo-1,2-dihydro-1,8-naphthyridin-4-yl)phenyl]acetamide]",< 50,< 100
"O=c1cc(N2CCN(c3ccccc3)CC2)c2cccnc2n1O [Example 131, 1-hydroxy-4-(4-phenylpiperazin-1-yl)-1,8-naphthyridin-2(1H)-one]",< 50,< 100
"CCOC(=O)c1c(-c2ccc(CCc3ccc(N)cc3)cc2)c2cccnc2n(O)c1=O [Example 264, ethyl 4-{4-[2-(4-aminophenyl)ethyl]phenyl}1-hydroxy-2-oxo-1,2,-dihydro-1,8-naphthyridin-3-carboxylate]",< 50,< 100
"CCOC(=O)c1c(O)c2cc(C(=O)NCc3cccc(OC)c3)cnc2n(O)c1=O [Example 78, Ethyl 1,4-dihydroxy-6-{[3-methoxybenzyl)amino] carbonyl}-2-oxo-1,2-dihydro-1,8-naphthyridine-3-carboxylate]",< 50,< 100
O=c1cc(NCc2cccc(CN3CCCCC3)c2)c2cccnc2n1O [Example 153],< 50,< 100
"O=C(Cc1ccccc1)Nc1cc(=O)n(O)c2ncccc12 [Example 101, N-(1-Hydroxy-2-oxo-1,2-dihydro-1,8-naphthyridin-4-yl)-2-phenylacetamide]",< 50,< 100
"O=C(Nc1ccccc1)c1c(O)c2cccnc2n(O)c1=O [Example 20, 1,4-Dihydroxy-2-oxo-N-phenyl-1,2-dihydro-1,8-naphthyridine-3-carboxamide]",< 50,< 100
"O=c1cc(-c2cn[nH]c2)c2cccnc2n1O [Example 244, 1-Hydroxy-4-(pyrazol-4-yl)-1,8-naphthyridin-2-(1H)-one]",< 50,< 100
"O=c1cc(N2CCc3ccccc3C2)c2cccnc2n1O [Example 119, 4-(3,4-dihydroisoquinolin-2(1H)-yl)-1-hydroxy-1,8-naphthyridin-2(1H)-one]",< 50,< 100
"CCCCc1c(O)c2cccnc2n(O)c1=O [Example 42, 3-Butyl-1,4-dihydroxy-1,8-naphthyridin-2(1H)-one]",< 50,< 100
"O=c1cc(NCc2ccccc2F)c2cccnc2n1O [Example 155, 4-[(2-fluorobenzyl)amino]-1-hydroxy-1,8-naphthyridin-2(1H-one)]",< 50,< 100
"NC(=O)c1cccc(-c2cc(=O)n(O)c3ncccc23)c1 [Example 196, 3-(1-hydroxy-2-oxo-1,2-dihydro-1,8-naphthyridin-4-yl)benzamide]",< 50,< 100
"CCOC(=O)c1c(O)c2cc(-c3ccccc3)cnc2n(O)c1=O [Example 49, Ethyl 1,4-dihydroxy-2-oxo-6-phenyl-1,2-dihydro-1,8-naphthyridine-3-carboxylate]",< 50,< 100
"O=c1cc(N[C@H]2CCN(Cc3ccccc3)C2)c2cccnc2n1O [Example 114, 4-{[(3S)-1-Benzylpyrrolidin-3-yl]amino}-1-hydroxy-1,8-naphthyridin-2(1H)-one]",< 50,< 100
"NCc1cccc(-c2ccc3c(c2)CN(c2cc(=O)n(O)c4ncccc24)CC3)c1 [Example 252, 4-[7-(3-aminomethylphenyl)-3,4-dihydroisoquinolin-2(1H)-yl]-1-hydroxy-1,8-naphthyridin-2(1H)-one]",< 50,< 100
"COc1ccc(-c2ccncc2)cc1-c1cc(=O)n(O)c2ncccc12 [Example 185, 1-hydroxy-4-(2-methoxy-5-pyridin-4-ylphenyl)-1,8-naphthyridin-2(1H)-one]",< 50,< 100
"O=C(Nc1cc(=O)n(O)c2ncccc12)c1ccccc1 [Example 102, N-(1-Hydroxy-2-oxo-1,2-dihydro-1,8-naphthyridin-4-yl)benzamide]",< 50,< 100
"CCOC(=O)c1c(O)c2cc(C(=O)NCc3ccccc3)cnc2n(O)c1=O [Example 77, Ethyl 6-[(benzylamino)carbonyl]-1,4-dihydroxy-2-oxo-1,2-dihydro-1,8-naphthyridine-3-carboxylate]",< 50,< 100
"CN(C)CCCN1CCN(Cc2cccc(-c3cc(=O)n(O)c4ncccc34)c2)CC1 [Example 212, 4-[3-({4-[3-(dimethylamino)propyl]-1-piperazinyl}methyl)phenyl]-1-hydroxy-1,8-naphthyridin-2(1H-one)]",< 50,< 100
"CN(C(=O)c1c(O)c2cccnc2n(O)c1=O)C1CCNC1 (stereo not drawn) [Example 215, 1,4-Dihydroxy-N-methyl-2-oxo-N-pyrrolidin-3-yl-1,2-dihydro-1,8-naphthyridine-3-carboxamide]",< 50,< 100

Compound,IC50 [1] [µM],IC50 [2] [µM]
"Nc1cccc(-c2cnc3c(c2)c(O)cc(=O)n3O)c1 [Example 68, 6-(3-Aminophenyl)-1,4-dihydroxy-1,8-naphthyridin-2(1H)-one]",< 50,< 100
"NCc1ccc(-c2cccc(-c3ccnc4c3c(O)cc(=O)n4O)c2)cc1 [Example 228, 5-[4′-(aminomethyl)biphenyl-3-yl]-1,4-dihydroxy-1,8-naphthyridin-2(1H)-one]",< 50,< 100
"NCc1cccc(CNc2cc(=O)n(O)c3ncccc23)c1 [Example 159, 4-{[3-(aminomethyl)benzyl]amino}-1-hydroxy-1,8-naphthyridin-2(1H-one)]",< 50,< 100
Cc1cc(C)n(-c2cccc(-c3cc(=O)n(O)c4ncccc34)c2)n1 [Example 176],< 50,< 100
"CCOC(=O)c1c(O)c2cc(C(C)=O)cnc2n(O)c1=O [Example 70, ethyl 6-acetyl-1,4-dihydroxy-2-oxo-1,2-dihydro-1,8-naphthyridine-3-carboxylate]",< 50,< 100
"O=c1c(-c2ccc(Br)cc2)c(O)c2cccnc2n1O [Example 38, 3-(4-Bromophenyl)-1,4-dihydroxy-1,8-naphthyridin-2(1H)-one]",< 50,< 100
"NC1(c2cccc(-c3ccc(-c4cc(=O)n(O)c5ncccc45)cc3)c2)CC1 [Example 238, 4-[3′-(1-aminocyclopropyl)biphenyl-4-yl]-1-hydroxy-1,8-naphthyridin-2(1H)-one]",< 50,< 100
"Nc1ccc(Cc2ccc(-c3cc(=O)n(O)c4ncccc34)cc2)cc1 [Example 239, 4-[4-(4-aminobenzyl)phenyl]-1-hydroxy-1,8-naphthyridin-2(1H)-one]",< 50,< 100
"CN1C(=O)c2c(c3cccnc3n(O)c2=O)NC1c1cccc(CN)c1 (stereo not drawn) [Example 220, 2-[3-(Aminomethyl)phenyl]-6-hydroxy-3-methyl-2,3-dihydropyrimido[5,4-c]-1,8-naphthyridine-4,5(1H, 6H)dione]",< 50,< 100
"O=c1cc(-c2cccc(CO)c2)c2cccnc2n1O [Example 183, 1-hydroxy-4-[3-(hydroxymethyl)phenyl]-1,8-naphthyridin-2(1H)-one]",< 50,< 100
"O=c1c(-c2ccc(F)cc2)c(O)c2cccnc2n1O [Example 34, 3-(4-Fluorophenyl)-1,4-dihydroxy-1,8-naphthyridin-2(1H)-one]",< 50,< 100
"O=c1c(-c2ccccc2)c(O)c2cc(/C=C/c3ccccc3)cnc2n1O [Example 55, 1,4-Dihydroxy-3-phenyl-6-[(E)-2-phenylvinyl]-1,8-naphthyridin-2(1H)-one]",< 50,< 100
"CNC(=O)c1cccc(-c2cc(=O)n(O)c3ncccc23)c1 [Example 180, 3-(1-hydroxy-2-oxo-1,2-dihydro-1,8-naphthyridin-4-yl)-N-methylbenzamide]",< 50,< 100
"CCOC(=O)c1c(O)c2cc(-c3cccc(OC)c3)cnc2n(O)c1=O [Example 62, Ethyl 1,4-dihydroxy-6-(3-methoxyphenyl)-2-oxo-1,2-dihydro-1,8-naphthyridine-3-carboxylate]",< 50,< 100
"CS(=O)(=O)Nc1cccc(-c2cc(=O)n(O)c3ncccc23)c1 [Example 175, N-[3-(1-hydroxy-2-oxo-1,2-dihydro-1,8-naphthyridin-4-yl)phenyl]methanesulfo-namide]",< 50,< 100
"O=c1cc(N2CCN(Cc3ccccc3)CC2)c2cccnc2n1O [Example 136, 4-(4-benzylpiperazin-1-yl)-1-hydroxy-1,8-naphthyridin-2(1H)-one]",< 50,< 100
"O=c1c(-c2ccccc2)c(O)c2cc(-c3ccc4ccccc4c3)cnc2n1O [Example 56, 1,4-Dihydroxy-6-(2-naphthyl)-3-phenyl-1,8-naphthyridin-2(1H)-one]",< 50,< 100
"O=c1cc(N2CCc3ccc(-c4ccncc4)cc3C2)c2cccnc2n1O [Example 253, 1-hydroxy-4-(7-pyridin-4-yl-3,4-dihydroisoquinolin-2(1H)-yl)-1,8-naphthyridin-2(1H)-one]",< 50,< 100
"O=C(NCc1ccc(F)cc1)c1c(O)c2cccnc2n(O)c1=O [Example 18, N-(4-Fluorobenzyl)-1,4-dihydroxy-2-oxo-1,2-dihydro-1,8-naphthyridine-3-carboxamide]",< 50,< 100
"Cc1n[nH]c2c1c(=O)n(O)c1ncccc21 [Example 94, 5-Hydroxy-3-methyl-1,5-dihydro-4H-pyrazolo[4,3-c]-1,8-naphthyridin-4-one]",< 50,< 100
O=c1cc(-c2cccc(CN3CCN(C(c4ccccc4)c4ccc(Cl)cc4)CC3)c2)c2cccnc2n1O (stereo not drawn) [Example 207],< 50,< 100
